Reference: patent publication US9901592B2 (priority 2008, dated 2018)
Values after ≈ are worked out from the molar mass of the structure shown. Read-outs that look alike come from different tables or passages of the source.

What was measured:
S. pneumoniae [1] = assay: MIC of the strains of the mouse systemic infection model; type: cell-based; details: Streptococcus pneumoniae
streptococci = assay: organism not typed; type: cell-based
M. catarrhalis = assay: microbe, parasite or virus in culture; type: cell-based; details: Moraxella catarrhalis
S. pneumoniae [2] = type: cell-based
S. aureus = assay: mouse systemic infection model (PD50); type: in vivo
pneumococci = assay: microbe, parasite or virus in culture; type: cell-based, S. pneumoniae; details: Streptococcus pneumoniae
S. pneumoniae [3] = assay: microbe, parasite or virus in culture; type: cell-based; details: for MIC: Streptococcus pneumoniae
S. pneumoniae [4] = assay: microbe, parasite or virus in culture; type: cell-based; details: Streptococcus pneumoniae
S. pyogenes = type: cell-based; details: for Mutant selection frequencies: S. pyogenes
S. pyogenes ATCC 8668 = assay: mouse subcutaneous abscess model; type: in vivo; details: 48 hr. post infection
Description: Example. Mouse Subcutaneous Abscess. Bacteria were prepared from an overnight plate culture by re-suspending in saline and adjusting the suspension to a 0.1 OD at 625 nm of a 1:10 dilution. The adjusted bacterial suspension was mixed 1:2 with cyclodextran beads prepared as per package instructions. The right flanks of the mice were shaven and injected subcutaneously with 0.2 ml of the bacterial inoculum. Two hours post infection mice were treated via oral gavage with either test article or control drug. 48 hours post infection, mice were euthanized, abscesses aseptically removed, homogenized, serially diluted and plated on bacterial growth agar. After overnight incubation, colonies were counted and CFUs/gram of abscess were determined.
Example. Mouse Subcutaneous Abscess˜S. pyogenes ATCC 8668 (Average Log10 CFU/gram of Abscess). Abscess processing 48 hours post infection.

S. pneumoniae [5] = assay: neutropenic mouse thigh infection; type: in vivo; details: QD, PO
S. pneumoniae [6] = assay: mouse systemic infection model (PD50); type: in vivo
[7] = S. pneumoniae (macrolide susceptible)

SMILES: CC[C@H]1OC(=O)[C@H](C)[C@@H](O[C@H]2C[C@@](C)(OC)[C@@H](O)[C@H](C)O2)[C@H](C)[C@@H](O[C@@H]2O[C@H](C)C[C@H](N(C)C)[C@H]2O)[C@](C)(OC)C[C@@H](C)C(=O)[C@H](C)[C@@H](O)[C@]1(C)O [CLR, clarithromycin]
- MIC (S. pneumoniae [1]; [7]): > 16 µg/mL
- MIC (S. pneumoniae [1]; S. pneumoniae (mefR), read-out: MIC): 0.5 µg/mL
- MIC (S. pneumoniae [1]; S. pneumoniae serotype 19A, read-out: MIC): > 16 µg/mL
- MIC50 (streptococci): 0.03 µg/mL (≈ 0.0401 µM)
- MIC90 (streptococci): 0.03 µg/mL (≈ 0.0401 µM)
- MIC Range (streptococci): ≦0.008-0.25 μg/ml
- MIC90 (M. catarrhalis): 0.12 µg/mL (≈ 0.16 µM)
- Mutant selection frequencies (S. pneumoniae [2]; S. pneumoniae, at 2×MIC): <1.0×10^−9-5.0×10^−7
- single step mutation frequency (S. pneumoniae [2]; strain 1077 Macrolide-S, 2 × MIC): 1.1 × 10^−9
- single step mutation frequency (S. pneumoniae [2]; strain 1077 Macrolide-S, 4 × MIC): <1.2 × 10^−10
- single step mutation frequency (S. pneumoniae [2]; strain 1077 Macrolide-S, 8 × MIC): <1.2 × 10^−10
- single step mutation frequency (S. pneumoniae [2]; strain 1635 Macrolide-R [erm(A)], 2 × MIC): <3.1 × 10^−9
- single step mutation frequency (S. pneumoniae [2]; strain 1635 Macrolide-R [erm(A)], 4 × MIC): <3.1 × 10^−9
- single step mutation frequency (S. pneumoniae [2]; strain 1635 Macrolide-R [erm(A)], 8 × MIC): <3.1 × 10^−9
- single step mutation frequency (S. pneumoniae [2]; strain 3665 Macrolide-R [mef(A)], 2 × MIC): 5.0 × 10^−7
- single step mutation frequency (S. pneumoniae [2]; strain 3665 Macrolide-R [mef(A)], 4 × MIC): <5.0 × 10^−10
- single step mutation frequency (S. pneumoniae [2]; strain 3665 Macrolide-R [mef(A)], 8 × MIC): <5.0 × 10^−10
- single step mutation frequency (S. pneumoniae [2]; strain 7127 Macrolide-S [S20N in L4, A105V in L22], 2 × MIC): <1.0 × 10^−9
- single step mutation frequency (S. pneumoniae [2]; strain 7127 Macrolide-S [S20N in L4, A105V in L22], 4 × MIC): <1.0 × 10^−9
- single step mutation frequency (S. pneumoniae [2]; strain 7127 Macrolide-S [S20N in L4, A105V in L22], 8 × MIC): <1.0 × 10^−9
- PD50 (S. aureus; MRSA): 5.0 mg/kg
- PD50 (S. aureus; MRSA 300 (CA)): 19.5 mg/kg
- PD50 (S. aureus; S. aureus, single oral dose 1 hr post infection): 22.7 mg/kg
- MIC50 (pneumococci; pneumococci, L4 mutations (27)): 16 µg/mL (≈ 21.4 µM)
- MIC90 (pneumococci; pneumococci, L4 mutations (27)): 32 µg/mL (≈ 42.8 µM)
- MIC (pneumococci; read-out: MIC range, pneumococci, L4 mutations (27)): 1 to 32 µg/mL (≈ 1.34 to 42.8 µM)
- strains with resistant clones / strains tested (S. pneumoniae [3]; S. pneumoniae): 5/6
- Parental MICs (S. pneumoniae [3]; S. pneumoniae, 8 strains with varying resistotypes): 0.016 to 16 µg/mL
- MIC (S. pneumoniae [3]; read-out: Initial MIC, strain 24 Macrolide-R [erm(B)], parent): > 64 µg/mL
- MIC (S. pneumoniae [3]; read-out: Initial MIC, strain 1076 Macrolide-R [erm(B)&mef(A)], parent): > 64 µg/mL
- MIC (S. pneumoniae [3]; read-out: Initial MIC, strain 1077 Macrolide-S, parent): 0.016 µg/mL (≈ 0.0214 µM)
- MIC (S. pneumoniae [3]; read-out: Initial MIC, strain 1635 Macrolide-R [erm(A)], parent): 0.5 µg/mL (≈ 0.668 µM)
- MIC (S. pneumoniae [3]; read-out: Initial MIC, strain 2686 Macrolide-R [L4 mutation], parent): 8 µg/mL (≈ 10.7 µM)
- MIC (S. pneumoniae [3]; read-out: Initial MIC, strain 3009 Macrolide-R [23SrRNA mutation], parent): 16 µg/mL (≈ 21.4 µM)
- MIC (S. pneumoniae [3]; read-out: Initial MIC, strain 3665 Macrolide-R [mef(A)], parent): 2 µg/mL (≈ 2.67 µM)
- MIC (S. pneumoniae [3]; read-out: Initial MIC, strain 7127 Macrolide-S [S20N in L4, A105V in L22], parent): 0.03 µg/mL (≈ 0.0401 µM)
- MIC (S. pneumoniae [3]; read-out: MIC of parents of resistant clones, S. pneumoniae (CEM-101: 7 strains)): 0.03 to 16 µg/mL
- MIC (S. pneumoniae [3]; read-out: Selected Resistance MIC, strain 1077 Macrolide-S, after serial passages in the drug): 0.008 µg/mL (≈ 0.0107 µM)
- MIC (S. pneumoniae [3]; read-out: Selected Resistance MIC, strain 1635 Macrolide-R [erm(A)], after serial passages in the drug): > 64 µg/mL
- MIC (S. pneumoniae [3]; read-out: Selected Resistance MIC, strain 2686 Macrolide-R [L4 mutation], after serial passages in the drug): > 64 µg/mL
- MIC (S. pneumoniae [3]; read-out: Selected Resistance MIC, strain 3009 Macrolide-R [23SrRNA mutation], after serial passages in the drug): > 64 µg/mL
- MIC (S. pneumoniae [3]; read-out: Selected Resistance MIC, strain 3665 Macrolide-R [mef(A)], after serial passages in the drug): 16 µg/mL (≈ 21.4 µM)
- MIC (S. pneumoniae [3]; read-out: Selected Resistance MIC, strain 7127 Macrolide-S [S20N in L4, A105V in L22], after serial passages in the drug): 16 µg/mL (≈ 21.4 µM)
- days until resistant clones (MIC increase) (S. pneumoniae [3]; daily passages, min. 14, max. 50): 14 to 49 days
- Retest MIC after 10 Antibiotic-free Subcultures (S. pneumoniae [3]; strain 24 Macrolide-R [erm(B)], clone selected with CEM-101): >64 µg/mL
- Retest MIC after 10 Antibiotic-free Subcultures (S. pneumoniae [3]; strain 24 Macrolide-R [erm(B)], clone selected with TEL): >64 µg/mL
- Retest MIC after 10 Antibiotic-free Subcultures (S. pneumoniae [3]; strain 1076 Macrolide-R [erm(B)&mef(A)], clone selected with CEM-101): >64 µg/mL
- Retest MIC after 10 Antibiotic-free Subcultures (S. pneumoniae [3]; strain 1076 Macrolide-R [erm(B)&mef(A)], clone selected with TEL): >64 µg/mL
- Retest MIC after 10 Antibiotic-free Subcultures (S. pneumoniae [3]; strain 1077 Macrolide-S, clone selected with AZI): >64 µg/mL
- Retest MIC after 10 Antibiotic-free Subcultures (S. pneumoniae [3]; strain 1077 Macrolide-S, clone selected with CEM-101): 0.06 µg/mL
- Retest MIC after 10 Antibiotic-free Subcultures (S. pneumoniae [3]; strain 1077 Macrolide-S, clone selected with CLN): >64 µg/mL
- Retest MIC after 10 Antibiotic-free Subcultures (S. pneumoniae [3]; strain 1077 Macrolide-S, clone selected with TEL): >64 µg/mL
- Retest MIC after 10 Antibiotic-free Subcultures (S. pneumoniae [3]; strain 1635 Macrolide-R [erm(A)], clone selected with AZI): >64 µg/mL
- Retest MIC after 10 Antibiotic-free Subcultures (S. pneumoniae [3]; strain 1635 Macrolide-R [erm(A)], clone selected with CEM-101): 1 µg/mL
- Retest MIC after 10 Antibiotic-free Subcultures (S. pneumoniae [3]; strain 1635 Macrolide-R [erm(A)], clone selected with CLN): 0.5 µg/mL
- Retest MIC after 10 Antibiotic-free Subcultures (S. pneumoniae [3]; strain 1635 Macrolide-R [erm(A)], clone selected with CLR): >64 µg/mL
- Retest MIC after 10 Antibiotic-free Subcultures (S. pneumoniae [3]; strain 2686 Macrolide-R [L4 mutation], clone selected with CEM-101): 32 µg/mL
- Retest MIC after 10 Antibiotic-free Subcultures (S. pneumoniae [3]; strain 2686 Macrolide-R [L4 mutation], clone selected with CLR): >64 µg/mL
- Retest MIC after 10 Antibiotic-free Subcultures (S. pneumoniae [3]; strain 2686 Macrolide-R [L4 mutation], clone selected with TEL): 16 µg/mL
- Retest MIC after 10 Antibiotic-free Subcultures (S. pneumoniae [3]; strain 3009 Macrolide-R [23SrRNA mutation], clone selected with CEM-101): >64 µg/mL
- Retest MIC after 10 Antibiotic-free Subcultures (S. pneumoniae [3]; strain 3009 Macrolide-R [23SrRNA mutation], clone selected with CLR): 64 µg/mL
- Retest MIC after 10 Antibiotic-free Subcultures (S. pneumoniae [3]; strain 3665 Macrolide-R [mef(A)], clone selected with CEM-101): 4 µg/mL
- Retest MIC after 10 Antibiotic-free Subcultures (S. pneumoniae [3]; strain 3665 Macrolide-R [mef(A)], clone selected with CLR): 8 µg/mL
- Retest MIC after 10 Antibiotic-free Subcultures (S. pneumoniae [3]; strain 3665 Macrolide-R [mef(A)], clone selected with TEL): 2 µg/mL
- Retest MIC after 10 Antibiotic-free Subcultures (S. pneumoniae [3]; strain 7127 Macrolide-S [S20N in L4, A105V in L22], clone selected with AZI): 0.5 µg/mL
- Retest MIC after 10 Antibiotic-free Subcultures (S. pneumoniae [3]; strain 7127 Macrolide-S [S20N in L4, A105V in L22], clone selected with CEM-101): 0.125 µg/mL
- Retest MIC after 10 Antibiotic-free Subcultures (S. pneumoniae [3]; strain 7127 Macrolide-S [S20N in L4, A105V in L22], clone selected with CLN): 0.016 µg/mL
- Retest MIC after 10 Antibiotic-free Subcultures (S. pneumoniae [3]; strain 7127 Macrolide-S [S20N in L4, A105V in L22], clone selected with CLR): 16 µg/mL
- Retest MIC after 10 Antibiotic-free Subcultures (S. pneumoniae [3]; strain 7127 Macrolide-S [S20N in L4, A105V in L22], clone selected with TEL): 0.06 µg/mL
- MIC90 (S. pneumoniae [4]): > 32 µg/mL
- Mutant selection frequencies (S. pyogenes; at 2×MIC): <1.0×10^−10-1.7×10^−7
- Mutant selection frequencies (S. pyogenes; at 8×MIC): <1.0×10^−10-5.0×10^−9
- single step mutation frequency (S. pyogenes; strain 237 Macrolide-R [L4 mutation], 2 × MIC): <3.3 × 10^−10
- single step mutation frequency (S. pyogenes; strain 237 Macrolide-R [L4 mutation], 4 × MIC): <3.3 × 10^−10
- single step mutation frequency (S. pyogenes; strain 237 Macrolide-R [L4 mutation], 8 × MIC): <3.3 × 10^−10
- single step mutation frequency (S. pyogenes; strain 2094 Macrolide-R [erm(A)], 2 × MIC): 1.7 × 10^−7
- single step mutation frequency (S. pyogenes; strain 2094 Macrolide-R [erm(A)], 4 × MIC): 1.0 × 10^−7
- single step mutation frequency (S. pyogenes; strain 2094 Macrolide-R [erm(A)], 8 × MIC): 5.0 × 10^−9
- single step mutation frequency (S. pyogenes; strain 2132 Macrolide-S, 2 × MIC): <1.0 × 10^−10
- single step mutation frequency (S. pyogenes; strain 2132 Macrolide-S, 4 × MIC): <1.0 × 10^−10
- single step mutation frequency (S. pyogenes; strain 2132 Macrolide-S, 8 × MIC): <1.0 × 10^−10
- Average Log10 CFU/gram of Abscess (S. pyogenes ATCC 8668; 10 mg/Kg): 7.63 Log10 CFU/gram
- Average Log10 CFU/gram of Abscess (S. pyogenes ATCC 8668; 20 mg/Kg): 7.82 Log10 CFU/gram
- Dose for 1 log10 Reduction from 24 hour controls (S. pneumoniae [5]; S. pneumoniae 1629): 4.5 mg/Kg
- Dose for 3 log10 Reduction from 24 hour controls (S. pneumoniae [5]; S. pneumoniae 1629): 13.5 mg/Kg
- Dose for 1 log10 Reduction from 24 hour controls (S. pneumoniae [5]; S. pneumoniae 6303): 5.5 mg/Kg
- Dose for 2 log10 Reduction from 24 hour controls (S. pneumoniae [5]; S. pneumoniae 6303): 9.2 mg/Kg
- Dose for 3 log10 Reduction from 24 hour controls (S. pneumoniae [5]; S. pneumoniae 6303): 14.0 mg/Kg
- PD50 (S. pneumoniae [6]; [7]): 32.1 mg/kg
- PD50 (S. pneumoniae [6]; S. pneumoniae (mefR)): >30 mg/kg
- PD50 (S. pneumoniae [6]; S. pneumoniae serotype 19A): 5.03 mg/kg
